Read-outs that look alike come from different tables or passages of the source.
What was measured:
[1] = system: GM3 expression on the cell surface, B16 mouse melanoma cells; assay: cell based phenotypic assay, cell surface GM3 by antibody mediated immunofluorescence, B16 (GM3 B16 IC50); conditions: Mus musculus, 50% inhibition of GM3 expression on the cell surface
Method in brief: (§1)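 Both lines undergo the phenotypic GM3 assay, and viability is recorded from that same cell-based run.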

[2] = system: GM3 expression on the cell surface, C32 human melanoma cells; assay: cell based phenotypic assay, cell surface GM3 by antibody mediated immunofluorescence, C32 (GM3 C32 IC50); conditions: Homo sapiens, 50% inhibition of GM3 expression on the cell surface
Method in brief: as §1

B16 mouse melanoma cells = assay: cell viability in the B16 cell-based assay (Viability, B16 IC50); conditions: Mus musculus
Method in brief: (§2)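 Cell death was scored within the cell-based GM3 experiment for each line. The viability value is the concentration producing 50% death, and numbers exceeding 10 signify no cytotoxicity.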

C32 human melanoma cells = assay: cell viability in the C32 cell-based assay (Viability, C32 IC50); conditions: Homo sapiens, concentration causing 50% cell death, values greater than 10 represent a lack of cell death
Method in brief: as §2

[3] = molecular target: T1, glucosylceramide synthase (Homo sapiens, UniProt Q16739); assay: microsomal assay measuring conversion of ceramide to glucosylceramide by HPLC (GCS IC50); type: biochemical; conditions: concentration causing 50% inhibition of glucosylceramide synthase activity
T1 construct: Microsomes were isolated from A375 human melanoma cells; endogenous in cells; host or cells: A375 human melanoma cells (microsomal fraction, 100,000 g pellet)
T1 sequence (Q16739 1-394): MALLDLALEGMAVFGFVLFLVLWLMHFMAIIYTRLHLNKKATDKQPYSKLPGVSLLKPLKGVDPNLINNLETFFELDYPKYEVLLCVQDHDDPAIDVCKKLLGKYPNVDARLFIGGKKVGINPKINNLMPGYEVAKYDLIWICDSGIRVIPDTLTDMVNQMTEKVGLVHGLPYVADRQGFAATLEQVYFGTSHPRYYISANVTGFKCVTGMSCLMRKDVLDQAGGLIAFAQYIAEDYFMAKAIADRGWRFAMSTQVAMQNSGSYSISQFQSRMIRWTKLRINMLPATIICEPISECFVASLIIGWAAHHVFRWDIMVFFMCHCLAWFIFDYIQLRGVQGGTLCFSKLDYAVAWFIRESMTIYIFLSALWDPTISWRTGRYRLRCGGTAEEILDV
Method in brief: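 IC50 is the compound concentration halving glucosylceramide synthase activity. Activity was measured in microsomes, with HPLC quantifying glucosylceramide formed from ceramide.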

[4] = B16 mouse melanoma cells, read-out: GM3 B16 IC50
[5] = C32 human melanoma cells, read-out: GM3 C32 IC50
[6] = B16, B16 cells, concentration causing 50% cell death, values greater than 10 represent a lack of cell death, read-out: Viability, B16 IC50
[7] = C32, C32 cells, read-out: Viability, C32 IC50
[8] = read-out: GM3 B16 IC50, B16 mouse melanoma cells
[9] = read-out: GM3 C32 IC50, C32 human melanoma cells
[10] = B16, read-out: Viability, B16 IC50
[11] = C32, read-out: Viability, C32 IC50, C32 cells

| Compound | IC50 [1, 4] [nM] | IC50 [2, 5] [nM] | IC50 (B16 mouse melanoma cells; [6]) [nM] | IC50 (C32 human melanoma cells; [7]) [nM] | IC50 [3] [nM] | IC50 [1, 8] [nM] | IC50 [2, 9] [nM] | IC50 (B16 mouse melanoma cells; [10]) [nM] | IC50 (C32 human melanoma cells; [11]) [nM] |
| --- | --- | --- | --- | --- | --- | --- | --- | --- | --- |
| CC1(COc2ccc(-c3ccc(C(C)(C)NC(=O)OC4CCN5CCC4CC5)cc3)cc2)COC1 (stereo not drawn) [Example 192, 1-Azabicyclo[3.2.2]nonan-4-yl (2-(4′-((3-methyloxetan-3-yl)methoxy)-[1,1′-biphenyl]-4-yl)propan-2-yl)carbamate] | 81.6 | 1.86 | 5840 | 1000 | 5.69 |  |  |  |  |
| CC1(COc2ccc(-c3ccc(C(C)(C)NC(=O)N4CCN5CCC4CC5)cc3)cc2)COC1 [Example 193, N-(2-(4′-((3-Methyloxetan-3-yl)methoxy)-[1,1′-biphenyl]-4-yl)propan-2-yl)-1,4-diazabicyclo[3.2.2]nonane-4-carboxamide] | 318 | 44.7 | ≥ 10000 | ≥ 10000 | 297 |  |  |  |  |
| CC(C)(NC(=O)OC1CN2CCC1CC2)c1ccc(-c2ccc(OCCC3COC3)cc2)cc1 (stereo not drawn) [Example 194, Quinuclidin-3-yl (2-(4′-(2-(oxetan-3-yl)ethoxy)-[1,1′-biphenyl]-4-yl)propan-2-yl)carbamate] |  |  |  |  | 10.5 | 115 | 4.06 | 9930 | 1000 |
| CC(C)(NC(=O)OC1CCN2CCC1CC2)c1ccc(-c2ccc(OCCC3COC3)cc2)cc1 (stereo not drawn) [Example 195, 1-Azabicyclo[3.2.2]nonan-4-yl (2-(4′-(2-(oxetan-3-yl)ethoxy)-[1,1′-biphenyl]-4-yl)propan-2-yl)carbamate] | 94.8 | 1.01 | 8030 | 100 | 5.67 |  |  |  |  |
| CC(C)(NC(=O)N1CCN2CCC1CC2)c1ccc(-c2ccc(OCCC3COC3)cc2)cc1 [Example 196, N-(2-(4′-(2-(Oxetan-3-yl)ethoxy)-[1,1′-biphenyl]-4-yl)propan-2-yl)-1,4-diazabicyclo[3.2.2]nonane-4-carboxamide] | 274 | 28.3 | ≥ 10000 | 1000 | 538 |  |  |  |  |
| COCCOCc1ccc(-c2ccc(C(C)(C)NC(=O)OC3CN4CCC3CC4)cc2)cc1 (stereo not drawn) [Example 197, Quinuclidin-3-yl (2-(4′-((2-methoxyethoxy)methyl)-[1,1′-biphenyl]-4-yl)propan-2-yl)carbamate] |  |  |  |  | 32.2 | 309 | 9.67 | ≥ 10000 | ≥ 10000 |
| COCCOCc1ccc(-c2ccc(C(C)(C)NC(=O)NC3(C)CN4CCC3CC4)cc2)cc1 (stereo not drawn) [Example 198, 1-(2-(4′-((2-Methoxyethoxy)methyl)-[1,1′-biphenyl]-4-yl)propan-2-yl)-3-(3-methylquinuclidin-3-yl)urea] | 118 | 3.24 | ≥ 10000 | ≥ 10000 | 25.2 |  |  |  |  |
| CCC1(NC(=O)NC(C)(C)c2ccc(-c3ccc(COCCOC)cc3)cc2)CN2CCC1CC2 (stereo not drawn) [Example 199, 1-(3-Ethylquinuclidin-3-yl)-3-(2-(4′-((2-methoxyethoxy)methyl)-[1,1′-biphenyl]-4-yl)propan-2-yl)urea] | 31.7 | 1.8 | 1000 | 1000 | 14.7 |  |  |  |  |
| COCCOCc1ccc(-c2ccc(C(C)(C)NC(=O)OC3CCN4CCC3CC4)cc2)cc1 (stereo not drawn) [Example 200, 1-Azabicyclo[3.2.2]nonan-4-yl (2-(4′-((2-methoxyethoxy)methyl)-[1,1′-biphenyl]-4-yl)propan-2-yl)carbamate] | 220 | 6.16 | ≥ 10000 | 1000 | 24 |  |  |  |  |
| COCCOCc1ccc(-c2ccc(C(C)(C)NC(=O)NC3(C)CCN4CCC3CC4)cc2)cc1 (stereo not drawn) [Example 201, 1-(2-(4′-((2-Methoxyethoxy)methyl)-[1,1′-biphenyl]-4-yl)propan-2-yl)-3-(4-methyl-1-azabicyclo[3.2.2]nonan-4-yl)urea] | 23 | 0.76 | ≥ 10000 | 316 | 13.9 |  |  |  |  |
| COCCOCc1ccc(-c2ccc(C(C)(C)NC(=O)N3CCN4CCC3CC4)cc2)cc1 [Example 202, N-(2-(4′-((2-Methoxyethoxy)methyl)-[1,1′-biphenyl]-4-yl)propan-2-yl)-1,4-diazabicyclo[3.2.2]nonane-4-carboxamide] | 933 | 154 | ≥ 10000 | ≥ 10000 | 2350 |  |  |  |  |
| COCCOCc1ccc(-c2ccc(C3(NC(=O)OC4CCN5CCC4CC5)CC3)cc2)cc1 (stereo not drawn) [Example 204, 1-Azabicyclo[3.2.2]nonan-4-yl (1-(4′-((2-methoxyethoxy)methyl)-[1,1′-biphenyl]-4-yl)cyclopropyl)carbamate] | 99.3 | 8.26 | ≥ 10000 | 1470 | 43.3 |  |  |  |  |
| COCCOCc1ccc(-c2ccc(C3(NC(=O)NC4(C)CN5CCC4CC5)CC3)cc2)cc1 (stereo not drawn) [Example 205, 1-(1-(4′-((2-Methoxyethoxy)methyl)-[1,1′-biphenyl]-4-yl)cyclopropyl)-3-(3-methylquinuclidin-3-yl)urea] | 156 | 5.31 | ≥ 10000 | 1780 | 51.5 |  |  |  |  |
| CCC1(NC(=O)NC2(c3ccc(-c4ccc(COCCOC)cc4)cc3)CC2)CN2CCC1CC2 (stereo not drawn) [Example 206, 1-(3-Ethylquinuclidin-3-yl)-3-(1-(4′-((2-methoxyethoxy)methyl)-[1,1′-biphenyl]-4-yl)cyclopropyl)urea] | 59.6 | 2.66 | ≥ 10000 | 1780 | 27.8 |  |  |  |  |
| COCCOCc1ccc(-c2ccc(C3(NC(=O)NC4(C)CCN5CCC4CC5)CC3)cc2)cc1 (stereo not drawn) [Example 207, 1-(1-(4′-((2-Methoxyethoxy)methyl)-[1,1′-biphenyl]-4-yl)cyclopropyl)-3-(4-methyl-1-azabicyclo[3.2.2]nonan-4-yl)urea] | 31.3 | 1.39 | ≥ 10000 | 1780 | 12.3 |  |  |  |  |
| COCCOCc1ccc(-c2ccc(C3(NC(=O)N[C@]4(C)CN5CCC4CC5)CC3)cc2)cc1 [Example 210, (S)-1-(1-(4′-((2-Methoxyethoxy)methyl)-[1,1′-biphenyl]-4-yl)cyclopropyl)-3-(3-methylquinuclidin-3-yl)urea] | 87 | 3.34 | ≥ 10000 | ≥ 10000 | 50.2 |  |  |  |  |
| COCCOCc1ccc(-c2ccc(C3(NC(=O)N[C@@]4(C)CN5CCC4CC5)CC3)cc2)cc1 [Example 211, (R)-1-(1-(4′-((2-Methoxyethoxy)methyl)-[1,1′-biphenyl]-4-yl)cyclopropyl)-3-(3-methylquinuclidin-3-yl)urea] | 683 | 72 | ≥ 10000 | 3160 | 938 |  |  |  |  |
| COCCCc1ccc(-c2ccc(C3(NC(=O)OC4CCN5CCC4CC5)CC3)cc2)cc1 (stereo not drawn) [Example 212, 1-Azabicyclo[3.2.2]nonan-4-yl (1-(4′-(3-methoxypropyl)-[1,1′-biphenyl]-4-yl)cyclopropyl)carbamate] | 47.9 | 2.53 | 6360 | ≥ 10000 | 3.85 |  |  |  |  |
| COCCCc1ccc(-c2ccc(C3(NC(=O)NC4(C)CCN5CCC4CC5)CC3)cc2)cc1 (stereo not drawn) [Example 213, 1-(1-(4′-(3-Methoxypropyl)-[1,1′-biphenyl]-4-yl)cyclopropyl)-3-(4-methyl-1-azabicyclo[3.2.2]nonan-4-yl)urea] | 5.9 | 0.35 | 9220 | ≥ 10000 | 1.12 |  |  |  |  |
| COCCCc1ccc(-c2ccc(C3(NC(=O)NC4(C)CN5CCC4CC5)CC3)cc2)cc1 (stereo not drawn) [Example 214, 1-(1-(4′-(3-Methoxypropyl)-[1,1′-biphenyl]-4-yl)cyclopropyl)-3-(3-methylquinuclidin-3-yl)urea] | 32.9 | 1.26 | ≥ 10000 | ≥ 10000 | 3.29 |  |  |  |  |
| CCC1(NC(=O)NC2(c3ccc(-c4ccc(CCCOC)cc4)cc3)CC2)CN2CCC1CC2 (stereo not drawn) [Example 215, 1-(3-Ethylquinuclidin-3-yl)-3-(1-(4′-(3-methoxypropyl)-[1,1′-biphenyl]-4-yl)cyclopropyl)urea] | 16.2 | 0.542 | 7550 | ≥ 10000 | 2.48 |  |  |  |  |

Reference: US12060349B2, “Glucosylceramide synthase inhibitors” (Genzyme Corporation, priority 2012, dated 2024)
